Active and inactive are the calls of the source.
How the values were obtained:
[1] = biological target: T1, Ubiquitin-conjugating enzyme E2 N (Homo sapiens, UniProt P61088); assay type: functional;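 note: Dose-response confirmation in a TR-FRET assay detecting UBC13-driven polyubiquitin chain formation, inhibition measured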
T1 sequence (P61088 whole entry): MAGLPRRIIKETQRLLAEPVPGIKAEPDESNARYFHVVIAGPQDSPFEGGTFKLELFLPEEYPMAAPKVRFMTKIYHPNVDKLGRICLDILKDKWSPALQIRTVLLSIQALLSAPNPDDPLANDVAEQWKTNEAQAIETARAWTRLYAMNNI

[2] = biological target: T2, Alkaline phosphatase, tissue-nonspecific isozyme (Homo sapiens, UniProt P05186); assay: potency against alkaline phosphatase TNAP – biochemical, luminescent, dose response, SAR follow-up (AID 1056)
T2 sequence (P05186 whole entry): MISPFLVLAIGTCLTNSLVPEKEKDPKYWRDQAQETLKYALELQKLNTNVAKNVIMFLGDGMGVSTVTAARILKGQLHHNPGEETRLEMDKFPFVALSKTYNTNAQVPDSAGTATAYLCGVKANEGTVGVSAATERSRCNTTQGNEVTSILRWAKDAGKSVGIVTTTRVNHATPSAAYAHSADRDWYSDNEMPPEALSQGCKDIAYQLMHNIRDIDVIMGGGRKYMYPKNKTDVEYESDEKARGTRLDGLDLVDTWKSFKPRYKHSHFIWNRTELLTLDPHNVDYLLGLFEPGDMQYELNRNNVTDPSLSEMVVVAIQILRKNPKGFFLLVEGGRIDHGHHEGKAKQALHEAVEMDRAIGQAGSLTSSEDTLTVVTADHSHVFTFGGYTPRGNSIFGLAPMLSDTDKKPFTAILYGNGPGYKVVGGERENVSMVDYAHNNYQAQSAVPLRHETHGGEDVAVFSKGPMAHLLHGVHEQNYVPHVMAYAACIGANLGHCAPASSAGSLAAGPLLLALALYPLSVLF

[3] = biological target: Glyceraldehyde-3-phosphate dehydrogenase (Homo sapiens, UniProt P04406)
[4] = biological target: DNA dC->dU-editing enzyme APOBEC-3A (Homo sapiens, UniProt P31941); assay: A3A deaminase inhibition for selectivity – biochemical, dose response (AID 504722); assay type: functional
[5] = biological target: DNA dC->dU-editing enzyme APOBEC-3G (Homo sapiens, UniProt Q9HC16); assay: Dose Response confirmation of small molecule APOBEC3G DNA Deaminase Inhibitors via a fluorescence-based single-stranded DNA deaminase assay. [Related pubchem assays (depositor defined):AID493012, AID493028]; assay type: functional
Bcl-2-like protein 10 = biological target: T3, Bcl-2-like protein 10 (Homo sapiens, UniProt Q9HD36); assay: Bcl-B/TR3 peptide binding disruption – biochemical, fluorescence polarization, FITC-TR3 peptide, selectivity assay for Bfl-1 inhibitor project, primary screen (AID 748);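 note: fluorescence polarization from a fluorescein-labelled TR3 peptide binding purified Bcl-B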
T3 sequence (Q9HD36 whole entry): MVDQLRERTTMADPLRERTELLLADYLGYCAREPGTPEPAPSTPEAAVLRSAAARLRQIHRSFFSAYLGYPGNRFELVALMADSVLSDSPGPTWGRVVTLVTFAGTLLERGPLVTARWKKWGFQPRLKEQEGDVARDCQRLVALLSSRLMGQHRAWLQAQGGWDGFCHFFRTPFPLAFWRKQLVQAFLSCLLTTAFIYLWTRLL

Streptococcus = assay: GAS UMAA2166 growth inhibition – luminescence, BacTiterGlo, counter-screen for streptokinase expression inhibitor project, dose response (AID 1915); assay type: functional, organism-based;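 note: potency for reduction of bacterial viability or growth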
Streptokinase A = biological target: T4, Streptokinase A (Streptococcus pyogenes serotype M1, UniProt P10520); assay: viability-normalized secreted streptokinase activity reduction – plasminogen activation absorbance, OD405, dose response (AID 1914); assay type: functional, Streptococcus pyogenes M1 GAS;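 note: secreted streptokinase activity via plasminogen activation per viability signal from cell pellet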
T4 sequence (P10520 whole entry): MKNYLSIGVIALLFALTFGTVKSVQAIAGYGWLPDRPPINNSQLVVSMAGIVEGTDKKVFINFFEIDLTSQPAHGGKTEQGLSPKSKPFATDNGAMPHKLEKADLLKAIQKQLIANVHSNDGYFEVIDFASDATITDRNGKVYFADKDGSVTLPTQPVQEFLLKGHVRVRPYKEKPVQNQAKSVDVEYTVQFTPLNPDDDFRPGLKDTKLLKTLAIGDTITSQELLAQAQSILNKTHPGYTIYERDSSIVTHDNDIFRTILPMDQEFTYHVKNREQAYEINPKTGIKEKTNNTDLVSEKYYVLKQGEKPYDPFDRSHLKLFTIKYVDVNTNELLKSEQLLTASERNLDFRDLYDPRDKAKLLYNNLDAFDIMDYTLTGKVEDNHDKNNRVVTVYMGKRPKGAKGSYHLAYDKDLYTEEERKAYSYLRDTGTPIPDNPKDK

[6] = system: Streptococcus sp. 'group A'; assay: Streptococcus pyogenes SK(-)GAS viability under kanamycin – luminescence, BacTiterGlo, confirmation, counter-screen for streptokinase expression inhibitor project, dose response (AID 1900); assay type: functional, organism-based
[7] = biological target: Eukaryotic translation initiation factor 4E (Mus musculus, UniProt P63073); assay: blockers of eIF4G binding by eIF4E – biochemical, TR-FRET, dose response (AID 855); assay type: functional;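 note: potency for disrupting eIF4E binding to eIF4GI seen as loss of FRET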
[8] = biological target: T5, Zinc finger protein mex-5 (Caenorhabditis elegans, UniProt Q9XUB2); assay: potency of MEX-5 RNA-binding blockers – biochemical, C. elegans, fluorescence polarization, dose response (AID 1960)
T5 sequence (Q9XUB2 whole entry): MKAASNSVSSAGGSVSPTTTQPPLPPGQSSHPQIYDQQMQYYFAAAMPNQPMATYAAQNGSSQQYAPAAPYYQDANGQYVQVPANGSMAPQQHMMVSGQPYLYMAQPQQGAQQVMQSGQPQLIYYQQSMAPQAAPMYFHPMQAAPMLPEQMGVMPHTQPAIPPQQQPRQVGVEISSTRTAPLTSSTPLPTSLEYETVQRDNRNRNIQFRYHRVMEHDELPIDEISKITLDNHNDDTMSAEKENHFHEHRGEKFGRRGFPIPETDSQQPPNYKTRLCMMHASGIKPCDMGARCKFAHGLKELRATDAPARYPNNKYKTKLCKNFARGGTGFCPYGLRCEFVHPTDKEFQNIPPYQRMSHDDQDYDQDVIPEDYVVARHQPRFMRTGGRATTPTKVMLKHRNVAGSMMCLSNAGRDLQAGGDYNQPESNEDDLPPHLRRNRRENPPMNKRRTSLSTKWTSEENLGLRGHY

Hexokinase HKDC1 = biological target: T6, Hexokinase HKDC1 (Homo sapiens, UniProt Q2TB90); assay: inhibition of HKDC1 glucose phosphorylation – biochemical, W721R variant, dose response (AID 504729); assay type: functional
T6 sequence (Q2TB90 whole entry): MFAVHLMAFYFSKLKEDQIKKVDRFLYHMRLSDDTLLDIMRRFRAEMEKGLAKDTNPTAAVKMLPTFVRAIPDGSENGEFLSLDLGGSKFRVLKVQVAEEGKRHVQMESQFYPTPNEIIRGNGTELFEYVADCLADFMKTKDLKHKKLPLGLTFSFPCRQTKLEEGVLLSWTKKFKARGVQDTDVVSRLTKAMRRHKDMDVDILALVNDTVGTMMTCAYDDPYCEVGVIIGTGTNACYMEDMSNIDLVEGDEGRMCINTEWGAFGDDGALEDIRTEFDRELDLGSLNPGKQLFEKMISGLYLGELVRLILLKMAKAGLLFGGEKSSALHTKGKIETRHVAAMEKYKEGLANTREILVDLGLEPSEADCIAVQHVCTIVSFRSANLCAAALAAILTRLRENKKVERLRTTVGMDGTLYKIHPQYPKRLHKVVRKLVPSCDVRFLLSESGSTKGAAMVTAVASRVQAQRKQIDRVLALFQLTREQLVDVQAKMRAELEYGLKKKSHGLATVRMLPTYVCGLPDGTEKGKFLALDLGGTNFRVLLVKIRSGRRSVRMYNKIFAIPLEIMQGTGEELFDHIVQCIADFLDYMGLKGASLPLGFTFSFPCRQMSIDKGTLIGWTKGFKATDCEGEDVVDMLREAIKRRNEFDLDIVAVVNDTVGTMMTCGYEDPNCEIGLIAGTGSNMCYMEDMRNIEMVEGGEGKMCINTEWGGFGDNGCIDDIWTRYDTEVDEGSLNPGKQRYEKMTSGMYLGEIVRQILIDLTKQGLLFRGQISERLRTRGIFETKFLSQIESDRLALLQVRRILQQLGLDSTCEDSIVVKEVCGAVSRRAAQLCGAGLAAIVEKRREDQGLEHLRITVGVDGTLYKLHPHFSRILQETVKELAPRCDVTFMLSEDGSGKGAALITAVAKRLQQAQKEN

[9] = biological target: T7, RNA-binding protein pos-1 (Caenorhabditis elegans, UniProt G5EF15); assay: disruptors of C. elegans POS-1 RNA interaction – biochemical, fluorescence polarization, dose response (AID 1964);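 note: purified POS-1 fused to maltose binding protein made in E. coli; potency of compounds blocking POS-1 binding to fluorescent RNA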
T7 sequence (G5EF15 whole entry): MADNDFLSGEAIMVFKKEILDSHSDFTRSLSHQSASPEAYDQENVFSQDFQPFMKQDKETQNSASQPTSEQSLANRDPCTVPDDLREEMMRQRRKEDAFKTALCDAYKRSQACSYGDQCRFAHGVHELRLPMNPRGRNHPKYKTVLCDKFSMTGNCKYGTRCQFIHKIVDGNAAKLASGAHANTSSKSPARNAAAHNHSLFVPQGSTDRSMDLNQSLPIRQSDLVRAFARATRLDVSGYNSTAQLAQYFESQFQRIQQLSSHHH

[10] = biological target: Glucose-6-phosphate 1-dehydrogenase (Homo sapiens, UniProt P11413); assay: inhibition of Homo sapiens G6PD, dose series – biochemical, fluorescence, selectivity assay for P. falciparum G6PD inhibitor project, dose response (AID 504792); assay type: functional
[11] = biological target: T8, Apoptotic protease-activating factor 1 (Homo sapiens, UniProt O14727); assay type: functional
T8 sequence (O14727 whole entry): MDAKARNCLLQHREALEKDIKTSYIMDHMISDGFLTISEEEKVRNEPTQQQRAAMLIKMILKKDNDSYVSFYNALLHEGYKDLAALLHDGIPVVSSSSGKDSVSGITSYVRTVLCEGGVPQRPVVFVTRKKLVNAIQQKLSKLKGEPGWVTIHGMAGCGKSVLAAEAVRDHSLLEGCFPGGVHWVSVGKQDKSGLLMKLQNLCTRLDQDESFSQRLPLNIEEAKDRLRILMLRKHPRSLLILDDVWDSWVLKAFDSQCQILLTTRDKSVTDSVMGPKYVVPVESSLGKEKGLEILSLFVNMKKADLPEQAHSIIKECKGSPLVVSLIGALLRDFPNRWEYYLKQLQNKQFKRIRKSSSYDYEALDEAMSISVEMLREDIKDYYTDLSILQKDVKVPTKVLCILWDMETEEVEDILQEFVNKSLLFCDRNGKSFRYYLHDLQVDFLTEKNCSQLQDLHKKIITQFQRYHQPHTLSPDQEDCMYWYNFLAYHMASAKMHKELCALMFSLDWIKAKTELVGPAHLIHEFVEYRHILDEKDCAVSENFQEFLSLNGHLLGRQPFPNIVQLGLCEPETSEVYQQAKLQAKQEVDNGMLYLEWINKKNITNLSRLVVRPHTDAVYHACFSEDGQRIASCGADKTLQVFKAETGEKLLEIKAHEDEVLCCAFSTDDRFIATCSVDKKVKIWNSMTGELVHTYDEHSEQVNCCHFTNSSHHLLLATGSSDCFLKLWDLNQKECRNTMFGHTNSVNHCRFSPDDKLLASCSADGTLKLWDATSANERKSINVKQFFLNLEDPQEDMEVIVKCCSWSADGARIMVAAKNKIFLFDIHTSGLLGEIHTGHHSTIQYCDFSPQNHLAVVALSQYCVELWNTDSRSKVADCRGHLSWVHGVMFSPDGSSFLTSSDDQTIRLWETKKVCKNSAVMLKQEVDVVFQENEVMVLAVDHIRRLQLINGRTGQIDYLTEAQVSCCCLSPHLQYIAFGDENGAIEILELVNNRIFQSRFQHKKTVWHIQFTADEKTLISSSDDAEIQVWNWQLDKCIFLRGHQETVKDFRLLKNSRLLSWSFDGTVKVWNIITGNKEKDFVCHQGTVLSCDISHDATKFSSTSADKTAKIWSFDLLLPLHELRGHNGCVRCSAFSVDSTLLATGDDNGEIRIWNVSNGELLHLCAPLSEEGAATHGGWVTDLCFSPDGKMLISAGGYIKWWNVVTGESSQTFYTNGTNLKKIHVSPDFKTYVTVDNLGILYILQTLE

H9c2 = assay: cells; assay type: functional, cell-based; details: Rattus norvegicus, H9c2, Myocardium;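 note: confirmatory concentration-response retest of ultra-high-throughput screening hits for modulation of myocardial damage; cell death induced by hydrogen peroxide oxidative stress; compound pretreatment for 60 min then peroxide exposure for 2 h; potency is for protecting the cells against peroxide damage rather than for killing them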
Nonstructural protein 1 = Nonstructural protein 1 (Influenza A virus, UniProt Q194T2); assay type: functional, Influenza A virus (A/California/07/2009(H1N1))
Nonstructural protein 1, sequence (Q194T2 whole entry): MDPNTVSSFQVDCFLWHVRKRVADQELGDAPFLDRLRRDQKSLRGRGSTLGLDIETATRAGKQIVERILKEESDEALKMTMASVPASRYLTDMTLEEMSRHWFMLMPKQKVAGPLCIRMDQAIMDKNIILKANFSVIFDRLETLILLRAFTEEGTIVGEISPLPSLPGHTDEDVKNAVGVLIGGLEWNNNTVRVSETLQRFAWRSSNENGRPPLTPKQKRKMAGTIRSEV

DNA dC->dU-editing enzyme APOBEC-3G, sequence (Q9HC16 whole entry): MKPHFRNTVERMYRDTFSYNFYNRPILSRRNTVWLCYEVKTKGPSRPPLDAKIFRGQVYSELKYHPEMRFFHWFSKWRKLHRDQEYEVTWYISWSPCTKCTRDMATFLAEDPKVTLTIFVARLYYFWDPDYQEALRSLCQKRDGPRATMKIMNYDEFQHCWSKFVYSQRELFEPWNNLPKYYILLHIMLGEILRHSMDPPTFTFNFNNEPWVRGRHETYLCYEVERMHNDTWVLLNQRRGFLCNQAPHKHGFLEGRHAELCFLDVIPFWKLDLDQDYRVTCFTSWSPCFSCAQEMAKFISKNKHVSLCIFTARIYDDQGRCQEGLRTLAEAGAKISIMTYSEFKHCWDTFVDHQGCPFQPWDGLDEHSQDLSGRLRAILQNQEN
DNA dC->dU-editing enzyme APOBEC-3A, sequence (P31941 whole entry): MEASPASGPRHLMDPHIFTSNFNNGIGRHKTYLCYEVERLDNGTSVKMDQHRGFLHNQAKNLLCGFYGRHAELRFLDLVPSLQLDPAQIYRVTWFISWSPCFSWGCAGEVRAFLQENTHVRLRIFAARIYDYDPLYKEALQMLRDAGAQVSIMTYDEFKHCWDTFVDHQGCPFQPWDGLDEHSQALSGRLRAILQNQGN
Glyceraldehyde-3-phosphate dehydrogenase, sequence (P04406 whole entry): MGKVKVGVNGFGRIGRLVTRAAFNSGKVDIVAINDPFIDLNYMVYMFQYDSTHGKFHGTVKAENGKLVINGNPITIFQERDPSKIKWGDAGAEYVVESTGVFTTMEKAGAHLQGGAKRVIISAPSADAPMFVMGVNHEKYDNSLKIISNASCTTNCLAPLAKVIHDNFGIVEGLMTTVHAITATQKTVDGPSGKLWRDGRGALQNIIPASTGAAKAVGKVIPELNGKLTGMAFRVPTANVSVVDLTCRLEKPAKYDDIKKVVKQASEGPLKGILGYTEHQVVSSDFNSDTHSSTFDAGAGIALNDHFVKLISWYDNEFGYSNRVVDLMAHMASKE
Glucose-6-phosphate 1-dehydrogenase, sequence (P11413 whole entry): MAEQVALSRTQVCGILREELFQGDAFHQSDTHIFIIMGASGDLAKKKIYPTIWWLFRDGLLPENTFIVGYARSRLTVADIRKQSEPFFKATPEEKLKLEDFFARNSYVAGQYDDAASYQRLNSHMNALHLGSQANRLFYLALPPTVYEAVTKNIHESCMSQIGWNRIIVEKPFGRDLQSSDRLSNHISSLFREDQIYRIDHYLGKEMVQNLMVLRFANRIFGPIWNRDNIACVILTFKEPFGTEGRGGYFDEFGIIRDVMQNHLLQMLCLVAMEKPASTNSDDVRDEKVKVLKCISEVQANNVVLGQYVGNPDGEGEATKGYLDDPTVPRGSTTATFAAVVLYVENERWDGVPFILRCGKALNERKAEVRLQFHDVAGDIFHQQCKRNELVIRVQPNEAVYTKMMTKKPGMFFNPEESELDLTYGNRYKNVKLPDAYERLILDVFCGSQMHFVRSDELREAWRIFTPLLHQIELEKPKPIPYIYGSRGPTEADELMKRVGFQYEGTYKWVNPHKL
Eukaryotic translation initiation factor 4E, sequence (P63073 whole entry): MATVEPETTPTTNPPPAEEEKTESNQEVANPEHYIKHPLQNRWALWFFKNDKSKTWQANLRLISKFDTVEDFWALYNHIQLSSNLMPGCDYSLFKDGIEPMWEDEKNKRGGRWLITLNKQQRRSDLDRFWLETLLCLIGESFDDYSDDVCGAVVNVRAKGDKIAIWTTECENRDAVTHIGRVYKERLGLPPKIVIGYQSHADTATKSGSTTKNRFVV

NC(=S)N=Nc1c(O)n(Cc2ccc(F)cc2)c2ccccc12
IC50 [1]: > 20 µM (inactive)

CC(C)CNC(=O)c1cc(-c2cc(F)c(Cl)cc2Cl)n[nH]1
IC50 [2]: 0.27 µM (active) | IC50 [3]: > 10 µM (inconclusive)

CC(C)CC(C(=O)NC(C)(C)C)N(Cc1cccs1)C(=O)c1snc(C(N)=O)c1N (configuration not stated)
IC50 [1]: > 20 µM (inactive)

CC(C)Cn1c(S)nnc1-c1cccc(S(=O)(=O)N2CCOCC2)c1
IC50 [4]: > 100 µM (inactive) | IC50 [5]: 5.37 µM (active)

Cc1ccccc1N1C(=O)c2sc3nc4c(c(=O)n3c2C1=O)CCC4
IC50 (Bcl-2-like protein 10): 54.9 µM (inactive)

COc1ccc(OC)c(CNc2cnc3ccccc3c2)c1
IC50 [2]: > 100 µM (inactive) | IC50 [3]: > 100 µM (not active)

Sc1nnc(-c2ccccn2)n1/N=C/c1c(Cl)cccc1Cl
IC50 [4]: > 100 µM (inactive) | IC50 [5]: 4.67 µM (active)

COC(=O)c1ccc(CSc2nnc(S)s2)o1
EC50 (Streptococcus): 9.6 µM (active) | EC50 (Streptokinase A): 5.61 µM (active) | IC50 [4]: > 100 µM (inactive) | EC50 [6]: 5.69 µM (active) | IC50 [5]: 5.99 µM (active) | IC50 [7]: > 64 µM (inactive)

C=CCN1C=C2C(=O)C(C)(OC(=O)CCC(=O)OC)C(=O)C(Br)=C2C=C1c1ccc(OC)cc1 (configuration not stated)
EC50 [8]: 42.8 µM (active) | IC50 (Hexokinase HKDC1): 24.6 µM (inactive) | EC50 [9]: 50.2 µM (active) | IC50 [10]: 29.9 µM (inactive) | IC50 [11]: 32.6 µM (active)

C[C@@H](C(=O)Nc1nc(-c2ccccn2)cs1)N1C(=O)C2CCCCC2C1=O (some centres not stated)
IC50 (H9c2): 8.43 µM (active) | IC50 (Nonstructural protein 1): 8.38 µM (active) | IC50 (Bcl-2-like protein 10): 96 µM (inactive)

O=S(=O)(Nc1ccc2ccccc2c1)c1cc(Cl)ccc1F
IC50 [2]: > 10 µM (inactive) | IC50 [3]: > 10 µM (inconclusive)
